Results reported in ChEMBL document CHEMBL1146373, “Free-radical-scavenging effect of carbazole derivatives on AAPH-induced hemolysis of human erythrocytes” (2007).

How the values were obtained:
Type in all cases: functional
Erythrocyte [1] = assay: Inhibition of AAPH-induced hemolysis in human erythrocytes assessed as hemolysis inhibition time at 13.9 uM
Erythrocyte [2] = assay: Inhibition of AAPH-induced hemolysis in human erythrocytes assessed as hemolysis time at 15.5 uM
Erythrocyte [3] = assay: Inhibition of AAPH-induced hemolysis in human erythrocytes assessed as hemolysis inhibition time at 15.5 uM
Erythrocyte [4] = assay: Inhibition of AAPH-induced hemolysis in human erythrocytes assessed as hemolysis inhibition time at 12.4 uM
Erythrocyte [5] = assay: Inhibition of AAPH-induced hemolysis in human erythrocytes assessed as hemolysis time at 12.4 uM
Erythrocyte [6] = assay: Inhibition of AAPH-induced hemolysis in human erythrocytes assessed as hemolysis time at 9.27 uM
Erythrocyte [7] = assay: Inhibition of AAPH-induced hemolysis in human erythrocytes assessed as hemolysis time at 10.8 uM
Erythrocyte [8] = assay: Inhibition of AAPH-induced hemolysis in human erythrocytes assessed as hemolysis time at 13.9 uM
Erythrocyte [9] = assay: Inhibition of AAPH-induced hemolysis in human erythrocytes assessed as hemolysis inhibition time at 9.27 uM
Erythrocyte [10] = assay: Inhibition of AAPH-induced hemolysis in human erythrocytes assessed as hemolysis inhibition time at 10.8 uM
Erythrocyte [11] = assay: Inhibition of AAPH-induced hemolysis in human erythrocytes assessed as hemolysis time at 20.7 uM
Erythrocyte [12] = assay: Inhibition of AAPH-induced hemolysis in human erythrocytes assessed as hemolysis time at 16.5 uM
Erythrocyte [13] = assay: Inhibition of AAPH-induced hemolysis in human erythrocytes assessed as hemolysis time at 24.8 uM
Erythrocyte [14] = assay: Inhibition of AAPH-induced hemolysis in human erythrocytes assessed as hemolysis inhibition time at 16.5 uM
Erythrocyte [15] = assay: Inhibition of AAPH-induced hemolysis in human erythrocytes assessed as hemolysis inhibition time at 8.26 uM
Erythrocyte [16] = assay: Inhibition of AAPH-induced hemolysis in human erythrocytes assessed as hemolysis inhibition time at 24.8 uM
Erythrocyte [17] = assay: Inhibition of AAPH-induced hemolysis in human erythrocytes assessed as hemolysis inhibition time at 20.7 uM
Erythrocyte [18] = assay: Inhibition of AAPH-induced hemolysis in human erythrocytes assessed as hemolysis time at 8.26 uM
Erythrocyte [19] = assay: Inhibition of AAPH-induced hemolysis in human erythrocytes assessed as hemolysis time at 20.6 uM
Erythrocyte [20] = assay: Inhibition of AAPH-induced hemolysis in human erythrocytes assessed as hemolysis inhibition time at 9.26 uM
Erythrocyte [21] = assay: Inhibition of AAPH-induced hemolysis in human erythrocytes assessed as hemolysis inhibition time at 20.6 uM
Erythrocyte [22] = assay: Inhibition of AAPH-induced hemolysis in human erythrocytes assessed as hemolysis time at 12.3 uM
Erythrocyte [23] = assay: Inhibition of AAPH-induced hemolysis in human erythrocytes assessed as hemolysis time at 6.17 uM
Erythrocyte [24] = assay: Inhibition of AAPH-induced hemolysis in human erythrocytes assessed as hemolysis time at 9.26 uM
Erythrocyte [25] = assay: Inhibition of AAPH-induced hemolysis in human erythrocytes assessed as hemolysis inhibition time at 6.17 uM
Erythrocyte [26] = assay: Inhibition of AAPH-induced hemolysis in human erythrocytes assessed as hemolysis time at 15.4 uM
Erythrocyte [27] = assay: Inhibition of AAPH-induced hemolysis in human erythrocytes assessed as hemolysis inhibition time at 15.4 uM
Erythrocyte [28] = assay: Inhibition of AAPH-induced hemolysis in human erythrocytes assessed as hemolysis inhibition time at 12.3 uM
Erythrocyte [29] = assay: Inhibition of AAPH-induced hemolysis in human erythrocytes assessed as hemolysis inhibition time at 6 uM
Erythrocyte [30] = assay: Inhibition of AAPH-induced hemolysis in human erythrocytes assessed as hemolysis time at 9 uM
Erythrocyte [31] = assay: Inhibition of AAPH-induced hemolysis in human erythrocytes assessed as hemolysis inhibition time at 12 uM
Erythrocyte [32] = assay: Inhibition of AAPH-induced hemolysis in human erythrocytes assessed as hemolysis time at 6 uM
Erythrocyte [33] = assay: Inhibition of AAPH-induced hemolysis in human erythrocytes assessed as hemolysis inhibition time at 15 uM
Erythrocyte [34] = assay: Inhibition of AAPH-induced hemolysis in human erythrocytes assessed as hemolysis time at 12 uM
Erythrocyte [35] = assay: Inhibition of AAPH-induced hemolysis in human erythrocytes assessed as hemolysis time at 3 uM
Erythrocyte [36] = assay: Inhibition of AAPH-induced hemolysis in human erythrocytes assessed as hemolysis time at 15 uM
Erythrocyte [37] = assay: Inhibition of AAPH-induced hemolysis in human erythrocytes assessed as hemolysis inhibition time at 3 uM
Erythrocyte [38] = assay: Inhibition of AAPH-induced hemolysis in human erythrocytes assessed as hemolysis inhibition time at 9 uM
Erythrocyte [39] = assay: Inhibition of AAPH-induced hemolysis in human erythrocytes assessed as hemolysis time at 20.3 uM
Erythrocyte [40] = assay: Inhibition of AAPH-induced hemolysis in human erythrocytes assessed as hemolysis inhibition time at 37.3 uM
Erythrocyte [41] = assay: Inhibition of AAPH-induced hemolysis in human erythrocytes assessed as hemolysis inhibition time at 30.5 uM
Erythrocyte [42] = assay: Inhibition of AAPH-induced hemolysis in human erythrocytes assessed as hemolysis inhibition time at 20.3 uM
Erythrocyte [43] = assay: Inhibition of AAPH-induced hemolysis in human erythrocytes assessed as hemolysis inhibition time at 61 uM
Erythrocyte [44] = assay: Inhibition of AAPH-induced hemolysis in human erythrocytes assessed as hemolysis time at 30.5 uM
Erythrocyte [45] = assay: Inhibition of AAPH-induced hemolysis in human erythrocytes assessed as hemolysis time at 61 uM
Erythrocyte [46] = assay: Inhibition of AAPH-induced hemolysis in human erythrocytes assessed as hemolysis time at 37.3 uM
Erythrocyte [47] = assay: Inhibition of AAPH-induced hemolysis in human erythrocytes assessed as hemolysis time at 50.8 uM
Erythrocyte [48] = assay: Inhibition of AAPH-induced hemolysis in human erythrocytes assessed as hemolysis inhibition time at 50.8 uM

c1ccc2c(c1)Nc1ccccc1O2 [PHENOXAZINE] showed an Activity (Erythrocyte [1]) of 274 min, an Activity (Erythrocyte [2]) of 509 min and an Activity (Erythrocyte [3]) of 322 min. The Activity (Erythrocyte [4]) was 238 min, the Activity (Erythrocyte [5]) was 425 min and the Activity (Erythrocyte [6]) was 345 min. For the same compound, the Activity (Erythrocyte [7]) was 379 min, the Activity (Erythrocyte [8]) was 461 min and the Activity (Erythrocyte [9]) was 158 min. It also gave an Activity (Erythrocyte [10]) of 192 min.
In the case of C1=Cc2ccccc2Nc2ccccc21 [IMINOSTILBENE], the Activity (Erythrocyte [11]) is reported as 365 min, the Activity (Erythrocyte [12]) is reported as 333 min and the Activity (Erythrocyte [13]) is reported as 381 min. For the same compound, the Activity (Erythrocyte [14]) was 121 min, the Activity (Erythrocyte [4]) was 85 min and the Activity (Erythrocyte [5]) was 297 min. For the same compound, the Activity (Erythrocyte [15]) was 52 min, the Activity (Erythrocyte [16]) was 169 min and the Activity (Erythrocyte [17]) was 153 min. It also gave an Activity (Erythrocyte [18]) of 264 min.
c1ccc2c(c1)[nH]c1ccccc12 [CARBAZOLE] was tested, and the Activity (Erythrocyte [19]) was 406 min, the Activity (Erythrocyte [20]) was 101 min and the Activity (Erythrocyte [21]) was 209 min. It also gave an Activity (Erythrocyte [22]) of 327 min, an Activity (Erythrocyte [23]) of 265 min and an Activity (Erythrocyte [24]) of 298 min. The Activity (Erythrocyte [25]) was 68 min, the Activity (Erythrocyte [26]) was 364 min and the Activity (Erythrocyte [27]) was 167 min. It also gave an Activity (Erythrocyte [28]) of 130 min.
Compound c1ccc(Nc2ccccc2)cc1 [DIPHENYLAMINE] has an Activity (Erythrocyte [29]) of 113 min, an Activity (Erythrocyte [30]) of 400 min and an Activity (Erythrocyte [31]) of 225 min. The Activity (Erythrocyte [32]) was 346 min, the Activity (Erythrocyte [33]) was 256 min and the Activity (Erythrocyte [34]) was 458 min. It also gave an Activity (Erythrocyte [35]) of 257 min, an Activity (Erythrocyte [36]) of 489 min and an Activity (Erythrocyte [37]) of 24 min. For the same compound, the Activity (Erythrocyte [38]) was 167 min.
With c1ccc2c(c1)Nc1ccccc1S2 [PHENOTHIAZINE] the Activity (Erythrocyte [39]) was 275 min, the Activity (Erythrocyte [40]) was 157 min and the Activity (Erythrocyte [41]) was 119 min. The Activity (Erythrocyte [42]) was 64 min, the Activity (Erythrocyte [43]) was 240 min and the Activity (Erythrocyte [44]) was 330 min. It also gave an Activity (Erythrocyte [45]) of 451 min, an Activity (Erythrocyte [46]) of 368 min and an Activity (Erythrocyte [47]) of 408 min. It also gave an Activity (Erythrocyte [48]) of 197 min.
